Laboratory results from ChEMBL document CHEMBL2176875, “Ago-allosteric modulators of human glucagon-like peptide 2 receptor” (Bioorg Med Chem Lett, 2012).
Activity calls are given as the source filed them. The rule behind the calls is not given here.

Tests used:
[1] = molecular target: T1, Glucagon-like peptide 2 receptor (Homo sapiens) (UniProt O95838); test: Positive ago-allosteric modulation of GLP2R overexpressed in human SE302 cells assessed as increase in intracellular cAMP level at 1 to 10 uM after 30 mins in presence of GLP2 (11 to 33); assay type: functional, cell-based
T1 sequence (whole entry): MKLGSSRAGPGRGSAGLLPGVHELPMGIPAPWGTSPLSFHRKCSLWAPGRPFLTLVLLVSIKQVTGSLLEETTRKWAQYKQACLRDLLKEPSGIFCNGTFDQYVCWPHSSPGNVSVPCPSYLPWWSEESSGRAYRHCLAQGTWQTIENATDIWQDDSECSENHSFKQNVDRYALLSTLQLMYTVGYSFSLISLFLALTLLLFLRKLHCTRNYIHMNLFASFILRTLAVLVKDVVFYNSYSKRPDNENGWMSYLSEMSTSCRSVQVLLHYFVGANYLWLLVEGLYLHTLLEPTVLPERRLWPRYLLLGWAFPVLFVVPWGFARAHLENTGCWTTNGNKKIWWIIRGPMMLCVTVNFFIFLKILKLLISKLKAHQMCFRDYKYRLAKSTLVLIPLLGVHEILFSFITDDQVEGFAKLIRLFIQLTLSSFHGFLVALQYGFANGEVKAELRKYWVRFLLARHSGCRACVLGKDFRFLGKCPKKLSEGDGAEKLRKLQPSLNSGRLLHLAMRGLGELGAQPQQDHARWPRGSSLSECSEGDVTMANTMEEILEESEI

[2] = molecular target: T1, Glucagon-like peptide 2 receptor (Homo sapiens); test: Positive ago-allosteric modulation of GLP2R overexpressed in human SE302 cells assessed as increase in intracellular cAMP level at 1 to 10 uM after 30 mins in presence of GLP2 (3 to 33); assay type: functional, cell-based
[3] = molecular target: T1, Glucagon-like peptide 2 receptor (Homo sapiens); test: Positive ago-allosteric modulation of GLP2R overexpressed in human SE302 cells assessed as upward shift in GLP2-induced placental alkaline phosphatase activation measured on day 3 by Alamar Blue assay; assay type: cell-based
[4] = molecular target: T1, Glucagon-like peptide 2 receptor (Homo sapiens); test: Positive ago-allosteric modulation of GLP2R overexpressed in human SE302 cells assessed as increase in intracellular cAMP level at 10 uM after 30 mins in presence of GLP2; assay type: functional, cell-based
[5] = molecular target: T1, Glucagon-like peptide 2 receptor (Homo sapiens); test: Positive ago-allosteric modulation of GLP2R overexpressed in human SE302 cells assessed as leftward shift in GLP2-induced placental alkaline phosphatase activation measured on day 3 by Alamar Blue assay; assay type: cell-based
[6] = molecular target: T1, Glucagon-like peptide 2 receptor (Homo sapiens); test: Positive ago-allosteric modulation of GLP2R overexpressed in human SE302 cells assessed as decrease in GLP2 (11 to 33) EC50 at 10 uM measured on day 3 by Alamar Blue assay relative to control; assay type: cell-based
[7] = molecular target: T1, Glucagon-like peptide 2 receptor (Homo sapiens); test: Positive ago-allosteric modulation of GLP2R overexpressed in human SE302 cells assessed as decrease in GLP2 (3 to 33) EC50 at 10 uM measured on day 3 by Alamar Blue assay relative to control; assay type: cell-based
[8] = molecular target: T1, Glucagon-like peptide 2 receptor (Homo sapiens); test: Positive ago-allosteric modulation of GLP2R overexpressed in human SE302 cells assessed as decrease in GLP2 (11 to 33) EC50 at 1 uM measured on day 3 by Alamar Blue assay relative to control; assay type: cell-based
[9] = molecular target: T1, Glucagon-like peptide 2 receptor (Homo sapiens); test: Positive ago-allosteric modulation of GLP2R overexpressed in human SE302 cells assessed as decrease in GLP2 (3 to 33) EC50 at 1 uM measured on day 3 by Alamar Blue assay relative to control; assay type: cell-based
[10] = molecular target: T1, Glucagon-like peptide 2 receptor (Homo sapiens); test: Positive ago-allosteric modulation of GLP2R overexpressed in human SE302 cells assessed as change in GLP2 EC50 measured on day 3 by Alamar Blue assay relative to control; assay type: cell-based
[11] = molecular target: T1, Glucagon-like peptide 2 receptor (Homo sapiens); test: Positive ago-allosteric modulation of GLP2R overexpressed in human SE302 cells assessed as increase in GLP2 (11 to 33)-induced placental alkaline phosphatase activation at 10 uM measured on day 3 by Alamar Blue assay relative to control; assay type: cell-based
[12] = molecular target: T1, Glucagon-like peptide 2 receptor (Homo sapiens); test: Positive ago-allosteric modulation of GLP2R overexpressed in human SE302 cells assessed as increase in GLP2 (11 to 33)-induced placental alkaline phosphatase activation at 1 uM measured on day 3 by Alamar Blue assay relative to control; assay type: cell-based
[13] = molecular target: T1, Glucagon-like peptide 2 receptor (Homo sapiens); test: Positive ago-allosteric modulation of GLP2R overexpressed in human SE302 cells assessed as increase in GLP2 (3 to 33)-induced placental alkaline phosphatase activation at 10 uM measured on day 3 by Alamar Blue assay relative to control; assay type: cell-based
[14] = molecular target: T1, Glucagon-like peptide 2 receptor (Homo sapiens); test: Positive ago-allosteric modulation of GLP2R overexpressed in human SE302 cells assessed as increase in GLP2 (3 to 33)-induced placental alkaline phosphatase activation at 1 uM measured on day 3 by Alamar Blue assay relative to control; assay type: cell-based
[15] = molecular target: T1, Glucagon-like peptide 2 receptor (Homo sapiens); test: Positive ago-allosteric modulation of GLP2R overexpressed in human SE302 cells assessed as increase in GLP2 (11 to 33)-induced placental alkaline phosphatase activation at 10 uM measured on day 3 by Alamar Blue assay relative to GLP2; assay type: cell-based
[16] = molecular target: T1, Glucagon-like peptide 2 receptor (Homo sapiens); test: Positive ago-allosteric modulation of GLP2R overexpressed in human SE302 cells assessed as GLP2 (3 to 33)-induced placental alkaline phosphatase activation at 10 uM measured on day 3 by Alamar Blue assay relative to GLP2; assay type: cell-based
[17] = molecular target: T1, Glucagon-like peptide 2 receptor (Homo sapiens); test: Positive ago-allosteric modulation of GLP2R overexpressed in human SE302 cells assessed as increase in GLP2-induced placental alkaline phosphatase activation at 10 uM measured on day 3 by Alamar Blue assay relative to control; assay type: cell-based
[18] = molecular target: T1, Glucagon-like peptide 2 receptor (Homo sapiens); test: Positive ago-allosteric modulation of GLP2R overexpressed in human SE302 cells assessed as increase in intracellular cAMP level at 10 to 100 uM after 30 mins; assay type: functional, cell-based
[19] = molecular target: Glucagon-like peptide 1 receptor (Homo sapiens) (UniProt P43220); test: Positive ago-allosteric modulation of GLP1R overexpressed in human SE302 cells assessed as increase in intracellular cAMP level at 10 to 100 uM after 30 mins; assay type: functional, cell-based
[20] = molecular target: T1, Glucagon-like peptide 2 receptor (Homo sapiens); test: Positive ago-allosteric modulation of GLP2R overexpressed in human SE302 cells assessed as placental alkaline phosphatase activation measured on day 3 by Alamar Blue assay; assay type: cell-based
[21] = molecular target: T1, Glucagon-like peptide 2 receptor (Homo sapiens); test: Positive ago-allosteric modulation of GLP2R overexpressed in human SE302 cells assessed as placental alkaline phosphatase activation at 25 uM measured on day 3 by Alamar Blue assay relative to 100 pM GLP2; assay type: cell-based
[22] = molecular target: T1, Glucagon-like peptide 2 receptor (Homo sapiens); test: Positive ago-allosteric modulation of GLP2R overexpressed in human SE302 cells assessed as placental alkaline phosphatase activation at 25 uM measured on day 3 by Alamar Blue assay relative to 10 pM GLP2; assay type: cell-based

Glucagon-like peptide 1 receptor (Homo sapiens), sequence (P43220 whole entry): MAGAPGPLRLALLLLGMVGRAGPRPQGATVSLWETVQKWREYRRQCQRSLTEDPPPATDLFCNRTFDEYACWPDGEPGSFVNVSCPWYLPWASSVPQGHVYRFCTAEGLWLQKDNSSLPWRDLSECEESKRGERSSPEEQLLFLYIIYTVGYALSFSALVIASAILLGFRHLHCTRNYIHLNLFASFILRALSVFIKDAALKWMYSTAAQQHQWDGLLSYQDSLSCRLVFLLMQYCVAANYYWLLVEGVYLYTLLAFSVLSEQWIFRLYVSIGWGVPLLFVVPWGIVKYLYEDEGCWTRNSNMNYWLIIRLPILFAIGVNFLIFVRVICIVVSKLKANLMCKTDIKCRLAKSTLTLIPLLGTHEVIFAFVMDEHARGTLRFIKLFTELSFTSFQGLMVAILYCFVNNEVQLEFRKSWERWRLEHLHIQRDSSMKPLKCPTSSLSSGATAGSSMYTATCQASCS

- Activity [1]: Active
- Activity [2]: Active
- Activity [3]: Dose-dependent effect
- Activity [4]: Active
- Activity [5]: Dose-dependent effect
- fold change (FC) [6]: 17
- fold change (FC) [7]: 3.3
- fold change (FC) [8]: 3.4
- fold change (FC) [9]: 1.2
- Activity [10]: inactive
- %max [11]: 930%
- %max [12]: 490%
- %max [13]: 150%
- %max [14]: 110%
- Activity [15]: Active
- Activity [16]: Active
- Activity [17]: 10%
- Activity [18]: Active
- Activity [19]: inactive
- Activity [20]: inactive
- %max [21]: 55%
- %max [22]: 701%
SMILES: O/N=C(\CSc1ccccc1)c1cc(Cl)sc1Cl
